Results on 101 compounds are retold here after ChEMBL document CHEMBL3988442, “University of Dundee, Small-Polar-MMV Screening Library” (2021).

“And” between values parts separate entries of the source, which are not always exact repeats. Equal entries are not always repeated.

The target in one assay is Chromo domain-containing protein 1 (Saccharomyces cerevisiae (strain ATCC 204508 / S288c) (Baker's yeast), UniProt P32657). The assay can be described thus: ScCHD-1 Enzyme Inhibition Assay. Type of assay: functional.
Sequence of Chromo domain-containing protein 1 (P32657 whole entry, the tested form may be a part): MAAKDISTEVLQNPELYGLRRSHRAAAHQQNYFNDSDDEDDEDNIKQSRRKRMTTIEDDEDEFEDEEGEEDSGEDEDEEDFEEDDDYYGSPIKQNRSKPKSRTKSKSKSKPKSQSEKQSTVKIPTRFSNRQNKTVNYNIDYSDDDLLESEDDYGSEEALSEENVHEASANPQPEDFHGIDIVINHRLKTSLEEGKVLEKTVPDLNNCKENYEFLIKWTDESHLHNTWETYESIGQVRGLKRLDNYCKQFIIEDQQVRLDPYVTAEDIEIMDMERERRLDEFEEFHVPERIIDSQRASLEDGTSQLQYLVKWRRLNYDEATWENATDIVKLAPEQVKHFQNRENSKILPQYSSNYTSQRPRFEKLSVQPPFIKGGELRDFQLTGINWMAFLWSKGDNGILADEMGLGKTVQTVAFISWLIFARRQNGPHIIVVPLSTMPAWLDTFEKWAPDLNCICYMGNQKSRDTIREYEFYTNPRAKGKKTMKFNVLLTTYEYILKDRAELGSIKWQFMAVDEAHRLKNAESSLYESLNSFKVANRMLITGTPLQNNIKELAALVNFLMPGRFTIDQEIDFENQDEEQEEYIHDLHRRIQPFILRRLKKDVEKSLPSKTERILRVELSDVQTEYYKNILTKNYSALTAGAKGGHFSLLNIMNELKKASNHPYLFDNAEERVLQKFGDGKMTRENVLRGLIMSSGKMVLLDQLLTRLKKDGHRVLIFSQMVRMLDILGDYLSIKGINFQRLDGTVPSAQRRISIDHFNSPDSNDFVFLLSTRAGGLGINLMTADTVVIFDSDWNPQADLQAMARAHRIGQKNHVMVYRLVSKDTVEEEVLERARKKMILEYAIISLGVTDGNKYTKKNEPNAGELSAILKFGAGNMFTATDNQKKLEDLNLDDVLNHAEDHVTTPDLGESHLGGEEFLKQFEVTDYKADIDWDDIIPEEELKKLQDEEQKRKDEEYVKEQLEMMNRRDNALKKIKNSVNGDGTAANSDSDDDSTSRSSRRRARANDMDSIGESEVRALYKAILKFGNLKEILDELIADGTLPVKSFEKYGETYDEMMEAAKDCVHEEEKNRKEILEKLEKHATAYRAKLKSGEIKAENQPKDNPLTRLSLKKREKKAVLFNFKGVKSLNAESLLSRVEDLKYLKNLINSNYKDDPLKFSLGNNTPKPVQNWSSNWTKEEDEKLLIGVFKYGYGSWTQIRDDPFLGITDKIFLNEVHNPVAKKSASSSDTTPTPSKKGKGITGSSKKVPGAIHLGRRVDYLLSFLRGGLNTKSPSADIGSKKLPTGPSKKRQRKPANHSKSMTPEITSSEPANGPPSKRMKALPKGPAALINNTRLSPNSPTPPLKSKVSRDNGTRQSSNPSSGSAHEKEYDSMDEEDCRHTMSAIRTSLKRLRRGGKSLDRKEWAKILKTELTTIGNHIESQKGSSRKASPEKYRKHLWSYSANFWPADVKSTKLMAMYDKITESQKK
Conditions: not given
In turn, `CN(C)Cc1nnc(C2CCN(C(=O)CCc3cccs3)CC2)n1C` had an IC50 of over 29.5 µM.
Same read-out and setting: for `O=C(c1csc(Br)c1)N1CCCC(n2ccnc2)C1` (stereo not drawn) the value was over 29.5 µM; for `c1ncn(CC2CCCCN2Cc2csc(C3CCCC3)n2)n1` (stereo not drawn), over 29.5 µM.
In turn, `CCn1ncnc1C1CC(=O)NCc2nc3ccccn3c21` (stereo not drawn) gave an IC50 of over 29.5 µM.
In turn, `CN(C(=O)C1CCCCC1)[C@@H]1CCC[C@@H](N2CCOCC2)[C@@H]1O` had an IC50 of over 29.5 µM.
Regarding `CC(=O)c1cccc(NC(=O)Cn2cc(I)cn2)c1`, the IC50 was over 29.5 µM.
The compound `Cc1cnn(CC2CCCN2CC(=O)N(C)CCC#N)c1` (stereo not drawn) gave an IC50 of over 29.5 µM.
The same measure, in the same setting: the value for `O=C(O)c1nnn(-c2ccc(OC(F)(F)F)cc2)c1-c1ccncc1` was over 29.5 µM.
`N#Cc1cn(CC(=O)NC2CC2)c2ccc(Br)cc2c1=O` had an IC50 of over 29.5 µM.
Same read-out and setting: the value for `Cc1ccc(C(=O)N2CCn3cc(CN(C)Cc4ccco4)nc3C2)o1` was over 29.5 µM; that for `NCC1(c2cccc(C(F)(F)F)c2)CCOCC1` was over 29.5 µM; that for `COc1c(CNC2CCc3c(Cl)cccc32)c(C)nn1C` (stereo not drawn) was over 29.5 µM.
On the same count and under the same terms, for `c1cn(Cc2nnc(C3CCN(c4nccs4)CC3)n2C2CC2)cn1` the value was over 29.5 µM; for `O=C(CCc1c[nH]cn1)N1CC[C@@H](c2ccc3ccccc3c2)[C@H](O)C1`, over 29.5 µM; for `CNC(=O)COc1ccccc1CNC1CCc2ncnn2C1` (stereo not drawn), over 29.5 µM.
As for `Cc1ccc(=O)n(CC2(O)CCN(Cc3cc(C)c(O)c(C)c3)CC2)n1`, the IC50 was over 29.5 µM.
As to `CNS(=O)(=O)c1cccc(CNC(=O)c2c(C)oc(C)c2C)c1`, the IC50 is over 29.5 µM.
Consider `COc1ccc(C2=C(C)C(N3CCc4ccccc4C3)=NS2(=O)=O)cc1`, for which the IC50 is 27.1 µM and 24 µM.
With `CC(=O)NCCC(=O)NCc1cccnc1-n1cnc2ccccc21`, the IC50 is over 29.5 µM.
Same read-out and setting: the value for `O=C(COc1coc(CN2CCCCCC2)cc1=O)c1ccccc1` was over 29.5 µM; that for `Cc1ccc(CNC(=O)CN2CCN(CC(O)C3CC3)CC2)cc1` (stereo not drawn) was over 29.5 µM.
Same read-out and setting: for `Cc1cc(C(=O)N2CCCCC2c2nc(C)cs2)[nH]n1` (stereo not drawn) the value was over 29.5 µM; for `Nc1ncc2c(n1)CN(C1CCCC1)C2=O`, over 29.5 µM.
Same read-out and setting: for `Cc1ccccc1C1CCCN1C(=O)CN1CC2(CCNCC2)OC1=O` (stereo not drawn) the value was over 29.5 µM; for `CC(NC(=O)c1cc(Br)c2c(c1)OCCO2)C(N)=O` (stereo not drawn), over 29.5 µM; for `CCc1ccc(-n2c(=O)[nH]c3nc(N4CCSCC4)ncc3c2=O)cc1`, over 29.5 µM.
Consider `CCS(=O)(=O)Nc1ccn(Cc2cccc(Cl)c2)n1`, for which the IC50 was over 29.5 µM.
Same read-out and setting: for `CCOc1ccc(N2CCCN=C2NC(=O)c2ccccc2C)cc1` the value was over 29.5 µM; for `CCNC(=O)[C@@H]1C[C@H](NC(=O)Cc2ccsc2)CN1Cc1ccc(C)o1`, over 29.5 µM.
Take `CN(C)C(CNC(=O)c1cc2c([nH]c1=O)CCCC2=O)c1ccsc1` (stereo not drawn): the IC50 is over 29.5 µM.
The same measure, in the same setting: for `CNC(=O)C1CCC(NC(=O)N(C)Cc2c(C)noc2C)CC1` (stereo not drawn) the value was over 29.5 µM.
Still for that read-out and setting: for `Cc1cnn(C2CN(CC(O)c3ccc(F)cc3)C2)c1` (stereo not drawn) the value was over 29.5 µM; for `O=C(NC1CC1)[C@H]1C[C@H]2OCC[C@H]2N(CC2CCOCC2)C1`, over 29.5 µM.
On the same count and under the same terms, the value for `Cc1cccc(CN2C[C@@H]3COC[C@]3(CNC(=O)c3ccsc3)C2)n1` was over 29.5 µM; that for `COCCn1ccc(NC(=O)Nc2ccc(C(N)=O)c(F)c2)n1` was over 29.5 µM; that for `c1cnn(Cc2nnc(C3CCN(C4CCOCC4)CC3)n2C2CC2)c1` was over 29.5 µM.
Take `CCC(NC(=O)C1CCN(S(C)(=O)=O)CC1)c1ccc(OC)c(C)c1` (stereo not drawn): the IC50 is over 29.5 µM.
In the case of `CN(C)CC1(O)CCN(S(=O)(=O)c2ccc(F)cc2)C1` (stereo not drawn), the IC50 is over 29.5 µM.
Same read-out and setting: the value for `CC(C)(C)n1ncc2c1NC(=O)CC2c1ccccc1` (stereo not drawn) was over 29.5 µM; that for `CN1CCN(c2ncc3c(=O)n(-c4cccc(F)c4)c(=O)[nH]c3n2)CC1` was over 29.5 µM.
`Cc1c(C(=O)NCC2CCCO2)nnn1-c1cccc2c1CCN(C)C2` (stereo not drawn) gave an IC50 of over 29.5 µM.
On the same count and under the same terms, the value for `COc1ccc(C(=O)N2CCCCC2c2nc(C)cs2)nn1` (stereo not drawn) was 21.8 µM and > 29.5 µM; that for `CCc1c(C)nn(CCNC(=O)C2CCCN(C(=O)N(C)C)C2)c1C` (stereo not drawn) was over 29.5 µM.
Same read-out and setting: for `Cc1cccc(C(=O)N2C[C@@H](OCc3cccnc3)[C@H]3OCCC[C@@H]32)n1` the value was over 29.5 µM; for `O=C(CS(=O)(=O)CC1CCCCC1)NC1CCCCNC1=O` (stereo not drawn), over 29.5 µM; for `CCCN1CCCn2nc(CNS(=O)(=O)c3cccc(C#N)c3)cc2C1`, over 29.5 µM.
On the same count and under the same terms, for `CNc1cc(N2CCCC2CNCc2ccc(Cl)o2)ncn1` (stereo not drawn) the value was over 29.5 µM; for `Cc1cccc(CN2CC[C@@H]3[C@@H]2CCN3C(=O)c2ccno2)n1`, over 29.5 µM; for `O=C(Cc1cccnc1)N1CCC(OCc2ccccc2)CC1`, over 29.5 µM.
As to `Cc1cc(NC(=O)Cn2cc(C#N)c(=O)c3cc(Br)ccc32)no1`, the IC50 was > 29.5 µM and 25.6 µM.
On the same count and under the same terms, for `O=C(Cn1c(=O)n(Cc2ccco2)c2ncccc21)NC1CCCCC1` the value was over 29.5 µM; for `CC(C)c1nc(C2CCCN2Cc2ccccc2C#N)no1` (stereo not drawn), over 29.5 µM; for `O=C1NCc2ccc(NC(=O)C3CCCN3c3nccs3)cc21` (stereo not drawn), over 29.5 µM.
For the compound `CCn1nccc1CNC(=O)C1CC1`, the IC50 was over 29.5 µM.
On the same count and under the same terms, for `COC(=O)N1CCc2ccc(NC(=O)c3cn(C)nn3)cc2C1` the value was over 29.5 µM.
The same measure, in the same setting: the value for `CSCc1nc(C(C)(C)NC(=O)OC(C)(C)C)no1` was over 29.5 µM.
Still for that read-out and setting: for `O=C(NCC(F)(F)F)NC1CCCc2c1cnn2CCO` (stereo not drawn) the value was over 29.5 µM.
`O=C(c1ccnnc1)N1C[C@@H](OCC2CCOCC2)[C@H]2OCCC[C@H]21` gave an IC50 of over 29.5 µM.
Still for that read-out and setting: for `COc1ccc(C(=O)C2CCCN(CCCn3cccn3)C2)c(OC)c1` (stereo not drawn) the value was over 29.5 µM; for `Cn1cnc2c1C(COCC1CC1)CN(C(=O)Cc1ccsc1)C2` (stereo not drawn), over 29.5 µM; for `O=C1N(Cc2cccc(F)c2F)CCCC1(O)CNC1CCCC1` (stereo not drawn), over 29.5 µM.
On the same count and under the same terms, the value for `CC(Cn1cccn1)NC(=O)N1CCN(Cc2cccs2)CC1` (stereo not drawn) was over 29.5 µM; that for `CCNC(=O)CCN1CCC(c2cc(N3CCOCC3)nc(C)n2)CC1` was over 29.5 µM.
Same read-out and setting: for `Cc1nn(C)c(C)c1NC(=O)CCn1ncc2c(C)cccc21` the value was over 29.5 µM; for `CCc1ccc(NC(=O)N2C[C@H]3C[C@H](C(=O)NC)[C@@H](C2)O3)cc1`, over 29.5 µM; for `Cc1ncc(S(C)(=O)=O)c(C2CCCNC2)n1` (stereo not drawn), over 29.5 µM.
Compound `O=C(Cn1c(=O)nc2n1C(=O)N(c1ccccc1)C2)Nc1ccccc1` had an IC50 of over 29.5 µM.
The same measure, in the same setting: the value for `O=C1CSC(c2ccsc2)c2sccc2N1` (stereo not drawn) was over 29.5 µM; that for `Cn1ccnc1CN1CCC2(CC1)CN(CC1CC1)C(=O)CO2` was over 29.5 µM; that for `COc1ccc(CC(=O)N(C)Cc2nnc3ccccn23)cc1` was over 29.5 µM.
The same measure, in the same setting: the value for `CC(=O)N(Cc1noc(C)n1)C1CCN(Cc2ccon2)C1` (stereo not drawn) was over 29.5 µM; that for `O=C(COCc1nc(-c2ccncc2)no1)N1CCCCCC1` was over 29.5 µM.
`Cc1ccc(S(=O)(=O)NCCNC(=O)c2ccoc2)cc1F` gave an IC50 of over 29.5 µM.
The same measure, in the same setting: for `CC(CNC(=O)c1ccc(Cl)cc1I)N1CCCC1` (stereo not drawn) the value was over 29.5 µM.
On the same count and under the same terms, the value for `O=C(NC1CC1)[C@H]1CC[C@@H]2[C@@H](CCN2c2ncc(F)cn2)O1` was over 29.5 µM.
Same read-out and setting: the value for `CC(C)COCc1cncc2c1CCN(Cc1cnn(C)c1)C2` was over 29.5 µM; that for `Cc1cccc(CN2CCC3(CCCN(C(=O)c4ccsc4)C3)C2=O)n1` (stereo not drawn) was over 29.5 µM.
The compound `CCn1nc(CC(C)C)cc1C(=O)N1CC[C@@H](O)C1` showed an IC50 of over 29.5 µM.
The same measure, in the same setting: the value for `Cc1ccc(C(=O)NCCCN2CCOCC2)c(Cl)c1` was over 29.5 µM; that for `FC(F)(F)COCCN1CCCC(c2noc(C3CC3)n2)C1` (stereo not drawn) was over 29.5 µM.
The same measure, in the same setting: for `O=C(NCc1ccco1)[C@H]1C[C@H]2OCC[C@H]2N(C(=O)c2ccco2)C1` the value was over 29.5 µM.
The same measure, in the same setting: for `Cc1cc(C)n(CC2CN(Cc3cccc(C(N)=O)c3)CCO2)n1` (stereo not drawn) the value was over 29.5 µM; for `CS(=O)(=O)NCc1cc2n(n1)CCCN(Cc1cccc(C#N)c1)C2`, over 29.5 µM.
For the compound `CCN(CC)CCNC(=O)c1cc(C(C)C)nc(N2CCCC2)n1`, the IC50 is over 29.5 µM.
Same read-out and setting: for `CN(C)c1ccc(CNc2cncc(-n3cccn3)n2)cc1` the value was over 29.5 µM.
The same measure, in the same setting: the value for `Cc1nc(N2CCN(C)CC2)ncc1C(=O)N1CC(C)(C)C(C)(O)C1` (stereo not drawn) was over 29.5 µM; that for `COc1ccc(C(=O)C2CCCN(Cc3ccncc3)C2)c(OC)c1` (stereo not drawn) was over 29.5 µM; that for `CCn1ccnc1CN1CCC(CCC(=O)Nc2ccccc2Cl)CC1` was over 29.5 µM.
On the same count and under the same terms, for `COc1cccc2c1OCC(C(=O)NC1CCN(S(C)(=O)=O)CC1)C2` (stereo not drawn) the value was over 29.5 µM.
`COCCNC(=O)C(C)n1cc(Br)cn1` (stereo not drawn): the IC50 is over 29.5 µM.
Compound `COCCN1CCN(CCCS(C)(=O)=O)CC1C` (stereo not drawn) showed an IC50 of over 29.5 µM.
Same read-out and setting: for `CN(Cc1cccc(F)c1)C(=O)CN1CCCC1CCc1ccccc1` (stereo not drawn) the value was over 29.5 µM.
The same measure, in the same setting: for `O=C1CSC(c2cccs2)c2cnn(C3CCCC3)c2N1` (stereo not drawn) the value was over 29.5 µM.
Same read-out and setting: for `CCOCCN1CCN(Cc2cccc(C(=O)N(C)C)c2)CC1` the value was over 29.5 µM; for `COC[C@@]12CC[C@@H](N3CCOCC3)C[C@H]1CCN(c1ncccn1)C2`, over 29.5 µM.
Consider `CC(C)CN1C[C@H]2CCN(c3ncccn3)CC[C@H]2S1(=O)=O`, for which the IC50 was over 29.5 µM.
`Cc1nc(N)sc1C(=O)N1CCCC(c2nccn2CCCN(C)C)C1` (stereo not drawn) showed an IC50 of over 29.5 µM.
Consider `Cc1ccc(-c2nc(CNC3CCc4ncnn4C3)co2)c(C)c1` (stereo not drawn), for which the IC50 is over 29.5 µM.
Same read-out and setting: the value for `Cn1ccc(NC(=O)Cc2cccc(F)c2)n1` was over 29.5 µM.
The same measure, in the same setting: the value for `COCCC(=O)N1CCc2cc(Cl)cc(Cl)c2C1` was over 29.5 µM.
For the compound `COc1ccc(NC(=O)CCC2CCCN(Cc3ncon3)C2)cc1Cl` (stereo not drawn), the IC50 was over 29.5 µM.

Test system in the next assay: not listed separately
The assay can be described thus: microbe, parasite or virus in culture. The following applies: Mycobacterium tuberculosis, 96 h, read-out: pIC50 (converted).
Turning to `Nc1ncc2c(n1)CN(C1CCCC1)C2=O`, the IC50 was 20.4 µM.

Test system in a further assay: not listed separately
The assay can be described thus: microbe, parasite or virus in culture. The following applies: Mycobacterium tuberculosis, 72 h, read-out: pIC50 (converted).
`Nc1ncc2c(n1)CN(C1CCCC1)C2=O`: the IC50 is 16.8 µM.
